The values below come from US20090220554A1, “Transglutaminase Inhibitors and Methods of Use Thereof” (priority 2005, published 2009).

The test system of the first assay is neurologic cancer.
Test: not given
As to conditions: at concentrations of 12.5-50 mg/kg; cited from earlier work.
With `O=C(N[C@@H](Cc1ccc(O)cc1)C(=O)NCC1CC(Br)=NO1)OCc1ccccc1` (stereo partly shown) [KCC009], the “activity in a mouse model for neurologic cancer” value was “active”.

A further assay addresses T1, recombinant human tissue transglutaminase 2 (TG2) (Homo sapiens, UniProt P21980).
T1 construct: 6xHis; made in house; host or cells: E. coli BL21
T1 sequence (P21980 1-687): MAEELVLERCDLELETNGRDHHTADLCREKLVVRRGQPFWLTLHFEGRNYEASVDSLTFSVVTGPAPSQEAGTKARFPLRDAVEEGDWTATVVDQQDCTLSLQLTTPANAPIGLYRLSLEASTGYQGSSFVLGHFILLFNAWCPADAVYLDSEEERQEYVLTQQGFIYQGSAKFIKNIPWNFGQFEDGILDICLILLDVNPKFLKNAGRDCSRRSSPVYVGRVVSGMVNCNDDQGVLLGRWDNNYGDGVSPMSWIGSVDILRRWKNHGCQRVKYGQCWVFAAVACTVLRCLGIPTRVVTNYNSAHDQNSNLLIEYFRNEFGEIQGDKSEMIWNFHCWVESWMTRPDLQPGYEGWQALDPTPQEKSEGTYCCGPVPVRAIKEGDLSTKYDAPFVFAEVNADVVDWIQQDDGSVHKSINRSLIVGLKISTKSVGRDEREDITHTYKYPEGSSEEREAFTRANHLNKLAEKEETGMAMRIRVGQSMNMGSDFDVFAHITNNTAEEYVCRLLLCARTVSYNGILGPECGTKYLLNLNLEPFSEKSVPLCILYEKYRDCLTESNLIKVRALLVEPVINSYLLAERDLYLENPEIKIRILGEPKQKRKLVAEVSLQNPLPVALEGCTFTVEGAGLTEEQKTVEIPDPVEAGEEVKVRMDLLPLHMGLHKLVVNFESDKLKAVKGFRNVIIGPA
Nature of the assay: TG2 deamidation assay (GDH-coupled fluorescent NADH assay, Z-Gln-Gly substrate). The assay is classed as biochemical. The following applies: fluorescent NADH-based deamidation assay; from log(concentration)-response relationships; read-out: IC50 for inhibition of TG2. As to the method: The illustrative compounds of the invention described above were tested in a TG2 assay with recombinant human tissue transglutaminase, as described in the Examples. […] It should be noted that, although […] inhibition is observed upon addition of these compounds, this observation may result from the ability of some inhibitors to bind to the GTP binding site of TG2. […] Thus, it follows that pharmacologically useful inhibitors of TG2 could be identified based on their ability to bind to either the enzyme active site or the GTP binding site. Purification of recombinant human TG2. […] The enzyme was isolated from cell lysates using nickel affinity chromatography. Following a buffer exchange, TG2 was purified further by ion-exchange (HiTrap-Q) chromatography using an Akta-FPLC system (Amersham Biosciences). […] Assays of tissue transglutaminase activity. The transamidation activity of TG2 was measured as described by Slaughter, et al. Anal Biochem, 1992. 205(1): p. 166-71. Briefly, 96-well Maxisorp plates (Nunc, Inc.) were coated with […] N′—N′-dimethylated casein overnight at 4° C. […] The deamidation activity of TG2 was measured essentially as described previously (Piper, et al. Biochemistry, 2002. 41(1): p. 386-93). […] TG2-catalyzed production of ammonium ions was monitored through the coupled oxidation of NADH by GDH. NADH levels were monitored by fluorescence (excitation: 341 nm; emission 451 nm) and were standardized with known amounts of NADH. During enzymatic reactions, NADH levels were monitored kinetically using a Fluoroskan II (Labsystems, Inc.) 96-well plate reader and a lag time of four minutes. These values were determined through analysis of the log(concentration)-response relationships.
In the case of `CCN1C(=O)c2cccc3c(NC(=O)CSc4ccc5ccccc5n4)ccc1c23` [CSRF-17], the IC50 is 200 µM.

For the compound `O=C1C(=O)N(C(=O)NC2CCCCC2)c2ccc(Br)cc21` [CSRF-20, 5-bromo-2,3-dioxo-2,3-dihydro-indole-1-carboxylic acid cyclohexylamide], the IC50 is 110 µM.

For `Cc1ccc2c(c1)C(=O)C(=O)N2CC(=O)Nc1ccc(S(=O)(=O)NCC2CCCO2)cc1` (stereo not shown) [CSRF-8], the IC50 amounted to 150 µM.

With `O=C(CN1C(=O)C(=O)c2cc(Br)ccc21)NCC1CC1` [CSRF-7, 2-(5-bromo-2,3-dioxo-2,3-dihydro-indol-1-yl)-N-cyclopropylmethyl-acetamide], the IC50 was determined as 30 µM.

For the compound `O=C1Nc2ccc(Oc3ccc4c(c3)C(=O)C(=O)N4)cc2C1=O` [CSRF-18, di-(1H-indole-2,3-dione-5-yl)-ether], the IC50 came to 23 µM.

On to `O=C1Nc2ccc(Cc3ccc4c(c3)C(=O)C(=O)N4)cc2C1=O` [CSRF-14, 1,1-di-(1H-indole-2,3-dione-5-yl)-methane], for which the IC50 turned out to be 16 µM.

For `O=C(CN1C(=O)C(=O)c2ccccc21)Nc1ccc(N2CCN(C(=O)c3cccs3)CC2)cc1` [CSRF-6, 2-(2,3-dioxo-2,3-dihydro-indol-1-yl)-N-{4-[4-(thiophene-2-carbonyl)-piperazin-1-yl]-phenyl}-acetamide], the 50% inhibitory concentration (IC50) was determined as 17 µM.

With `CC1=CC(C)(C)N2C(=O)C(=O)c3cc(OC(=O)C4CCCO4)cc1c32` (stereo not shown) [CSRF-24, tetrahydrofuran-2-carboxylic acid 4,4,6-trimethyl-1,2-dioxo-1,2-dihydro-4H-pyrrolo[3,2,1-ij]quinolin-8-yl ester], the IC50 worked out at 450 µM.

For the compound `O=C(CSc1nnc2c(n1)[nH]c1ccc(F)cc12)OC1CCCCC1` [CSRF-2, (6-fluoro-9H-1,3,4,9-tetraaza-fluoren-2-ylsulfanyl)-acetic acid cyclohexyl ester], the half-maximal inhibitory concentration (IC50) amounted to 36 µM.

`O=C(NNC(=O)C1=NOC(CNc2ncc(C(F)(F)F)cc2Cl)C1)Nc1ccc(Cl)cc1` (stereo not shown) [CSRF-13, 1-(4-chloro-phenyl)-3-(2-{5-[3-chloro-5-trifluoromethyl-pyridin-2-ylamino)-methyl]-4,5-dihydro-isoxazol-3-yl}-carboxamido-N-urea]: the half-inhibitory concentration (IC50) worked out at 250 µM.

Regarding `Cc1cccc(NC(=S)N(Cc2cc3ccc(C)c(C)c3[nH]c2=O)CC2CCCO2)c1` (stereo not shown) [CSRF-3, 1-(7,8-dimethyl-2-oxo-1,2-dihydro-quinolin-3-ylmethyl)-1-(tetrahydrofuran-2-ylmethyl)-3-m-tolyl-thiourea], the IC50 is 30 µM.

The target of the next assay is T1, recombinant human tissue transglutaminase 2 (TG2). In words: TG2 transamidation assay (5-(biotinamido)pentylamine incorporation into dimethylated casein). The assay is classed as biochemical.
Details: not given
An excerpt: Purification of recombinant human TG2. TG2 was purified from eight 1 L cultures of the BL21 strain of E. coli expressing a plasmid encoding recombinant, 6×-His tagged human tissue transglutaminase 2 (TG2). The enzyme was isolated from cell lysates using nickel affinity chromatography. Following a buffer exchange, TG2 was purified further by ion-exchange (HiTrap-Q) chromatography using an Akta-FPLC system (Amersham Biosciences). Fractions containing purified TG2 were pooled, exchanged into low salt buffer (20 mM Tris-Cl, 1 mM EDTA, 1 mM DTT, pH 7.2), supplemented with 10% glycerol, flash frozen in 100 μL aliquots and stored at −80° C.
Assays of tissue transglutaminase activity. The transamidation activity of TG2 was measured as described by Slaughter, et al. Anal Biochem, 1992. […] 5-BP incorporated by TG2 was visualized by binding of a streptavidin-alkaline phosphatase conjugate (Sigma) and kinetic measurement of the dephosphorylation of pNPP was monitored at 410 nm using a ThermoMax microplate reader (Molecular Devices). The deamidation activity of TG2 was measured essentially as described previously (Piper, et al. Biochemistry, 2002. 41(1): p. 386-93). […] TG2-catalyzed production of ammonium ions was monitored through the coupled oxidation of NADH by GDH. NADH levels were monitored by fluorescence (excitation: 341 nm; emission 451 nm) and were standardized with known amounts of NADH. […]
Turning to `O=C1NC(=O)N(c2cccc(Cl)c2)C(=O)/C1=N/c1ccc(Cl)c(CN2C(=O)c3ccccc3C2=O)c1` [CSRF-21, 5-[4-Chloro-3-(1,3-dioxo-1,3-dihydro-isoindol-2-ylmethyl)-phenylimino]-1-(3-chloro-phenyl)-pyrimidine-2,4,6-trione], the concentration for half-maximal inhibition (IC50) stood at 10 µM.

What is called IC50 is the concentration at which inhibition is half-maximal.
